Target: ROMK (Kir1.1) channel (Homo sapiens (Human), UniProt P48048)
Experiment: Thallium Flux Assay
Assay type: cell-based
Protocol: The following Thallium Flux Assay was performed on each of the final product compounds in the Examples.
A Thallium Flux Assay was performed on the compounds of the Examples. This assay has been described previously; see, e.g., PCT Published Application WO 2013/062900.

Sequence of ROMK (Kir1.1) channel (P48048 whole entry): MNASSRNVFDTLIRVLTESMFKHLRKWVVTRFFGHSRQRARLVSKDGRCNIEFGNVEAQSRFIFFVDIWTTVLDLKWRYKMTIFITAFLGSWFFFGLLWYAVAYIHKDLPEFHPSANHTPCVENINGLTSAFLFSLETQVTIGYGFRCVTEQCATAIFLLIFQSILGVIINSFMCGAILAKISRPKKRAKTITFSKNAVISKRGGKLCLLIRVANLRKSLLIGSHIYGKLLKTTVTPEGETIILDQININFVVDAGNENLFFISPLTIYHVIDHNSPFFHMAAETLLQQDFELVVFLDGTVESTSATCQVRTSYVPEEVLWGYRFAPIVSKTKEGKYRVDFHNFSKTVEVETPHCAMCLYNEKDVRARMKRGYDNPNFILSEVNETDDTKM

| Compound | IC50 [nM] |
| --- | --- |
| CC1=C(N2CCC3(CCN(C(CO)c4ccc5c(ccc6nnnn65)c4)CC3)C2=O)COC1=O (racemic) [Example 28, 8-(2-hydroxy-1-(tetrazolo[1,5-a]quinolin-7-yl)ethyl)-2-(4-methyl-5-oxo-2,5-dihydrofuran-3-yl)-2,8-diazaspiro[4.5]decan-1-one] | 18 |
| CC1=C(N2CCC3(CCN(C[C@H](O)c4ccc5c(c4Cl)Cn4nnnc4-5)CC3)C2=O)COC1=O [Example 1, (R)-8-(2-(6-chloro-5H-tetrazolo[5,1-a]isoindol-7-yl)-2-hydroxyethyl)-2-(4-methyl-5-oxo-2,5-dihydrofuran-3-yl)-2,8-diazaspiro[4.5]decan-1-one] | 31 |
| CC1=C(N2CCC3(CCN(C[C@@H](O)c4ccc5c(c4Cl)Cn4nnnc4-5)CC3)C2=O)COC1=O [Example 2, (S)-8-(2-(6-chloro-5H-tetrazolo[5,1-a]isoindol-7-yl)-2-hydroxyethyl)-2-(4-methyl-5-oxo-2,5-dihydrofuran-3-yl)-2,8-diazaspiro[4.5]decan-1-one] | 9 |
| CC1=C(N2CC[C@@]3(CCN(C[C@H](O)c4ccc5c(c4)Cn4nnnc4-5)C[C@@H]3F)C2=O)COC1=O [Example 3, (5S,6R)-6-fluoro-8-((R)-2-hydroxy-2-(5H-tetrazolo[5,1-a]isoindol-7-yl)ethyl)-2-(4-methyl-5-oxo-2,5-dihydrofuran-3-yl)-2,8-diazaspiro[4.5]decan-1-one] | 35 |
| CC1=C(N2CC[C@]3(CCN(C[C@H](O)c4ccc5c(c4)Cn4nnnc4-5)C[C@H]3F)C2=O)COC1=O [Example 4, (5R,6S)-6-fluoro-8-((R)-2-hydroxy-2-(5H-tetrazolo[5,1-a]isoindol-7-yl)ethyl)-2-(4-methyl-5-oxo-2,5-dihydrofuran-3-yl)-2,8-diazaspiro[4.5]decan-1-one] | 43 |
| CC1=C(N2CC[C@@]3(CCN(C[C@@H](O)c4ccc5c(c4)Cn4nnnc4-5)C[C@@H]3F)C2=O)COC1=O [Example 5, (5S,6R)-6-fluoro-8-((S)-2-hydroxy-2-(5H-tetrazolo[5,1-a]isoindol-7-yl)ethyl)-2-(4-methyl-5-oxo-2,5-dihydrofuran-3-yl)-2,8-diazaspiro[4.5]decan-1-one] | 111 |
| CC1=C(N2CC[C@]3(CCN(C[C@@H](O)c4ccc5c(c4)Cn4nnnc4-5)C[C@H]3F)C2=O)COC1=O [Example 6, (5R,6S)-6-fluoro-8-((S)-2-hydroxy-2-(5H-tetrazolo[5,1-a]isoindol-7-yl)ethyl)-2-(4-methyl-5-oxo-2,5-dihydrofuran-3-yl)-2,8-diazaspiro[4.5]decan-1-one] | 40 |
| CC1=C(N2CCC3(CCN(C[C@H](O)c4ccc5c(c4)CCc4nnnn4-5)CC3)C2=O)COC1=O [Example 7A, (R)-8-(2-(4,5-dihydrotetrazolo[1,5-a]quinolin-7-yl)-2-hydroxyethyl)-2-(4-methyl-5-oxo-2,5-dihydrofuran-3-yl)-2,8-diazaspiro[4.5]decan-1-one] | 34 |
| CC1=C(N2CCC3(CCN(C[C@@H](O)c4ccc5c(c4)CCc4nnnn4-5)CC3)C2=O)COC1=O [Example 7B, (S)-8-(2-(4,5-dihydrotetrazolo[1,5-a]quinolin-7-yl)-2-hydroxyethyl)-2-(4-methyl-5-oxo-2,5-dihydrofuran-3-yl)-2,8-diazaspiro[4.5]decan-1-one] | 38 |
| CC1=C(N2CCC3(CCN(C[C@H](O)c4ccc5c(c4)Cn4nnnc4-5)CC3)C2=O)COC1=O [Example 8, (R)-8-(2-hydroxy-2-(5H-tetrazolo[5,1-a]isoindol-7-yl)ethyl)-2-(4-methyl-5-oxo-2,5-dihydrofuran-3-yl)-2,8-diazaspiro[4.5]decan-1-one] | 13 |
| CC1=C(N2CCC3(CCN(C[C@@H](O)c4ccc5c(c4)Cn4nnnc4-5)CC3)C2=O)COC1=O [Example 9, (S)-8-(2-hydroxy-2-(5H-tetrazolo[5,1-a]isoindol-7-yl)ethyl)-2-(4-methyl-5-oxo-2,5-dihydrofuran-3-yl)-2,8-diazaspiro[4.5]decan-1-one] | 19 |
| CC1=C(N2CCC3(CCN(C[C@H](O)c4ccc5c(c4C)CCc4nnnn4-5)CC3)C2=O)COC1=O [Example 10, (R)-8-(2-hydroxy-2-(6-methyl-4,5-dihydrotetrazolo[1,5-a]quinolin-7-yl)ethyl)-2-(4-methyl-5-oxo-2,5-dihydrofuran-3-yl)-2,8-diazaspiro[4.5]decan-1-one] | 46 |
| CC1=C(N2CCC3(CCN(C[C@@H](O)c4ccc5c(c4C)CCc4nnnn4-5)CC3)C2=O)COC1=O [Example 11, (S)-8-(2-hydroxy-2-(6-methyl-4,5-dihydrotetrazolo[1,5-a]quinolin-7-yl)ethyl)-2-(4-methyl-5-oxo-2,5-dihydrofuran-3-yl)-2,8-diazaspiro[4.5]decan-1-one] | 47 |
| C[C@@H]1CC2(CCN(C[C@H](O)c3ccc4c(c3)CCc3nnnn3-4)CC2)C(=O)N1C1=CC(=O)OC1 [Example 12, (R)-8-((R)-2-(4,5-dihydrotetrazolo[1,5-a]quinolin-7-yl)-2-hydroxyethyl)-3-methyl-2-(5-oxo-2,5-dihydrofuran-3-yl)-2,8-diazaspiro[4.5]decan-1-one] | 188 |
| C[C@H]1CC2(CCN(C[C@H](O)c3ccc4c(c3)CCc3nnnn3-4)CC2)C(=O)N1C1=CC(=O)OC1 [Example 13, (S)-8-((R)-2-(4,5-dihydrotetrazolo[1,5-a]quinolin-7-yl)-2-hydroxyethyl)-3-methyl-2-(5-oxo-2,5-dihydrofuran-3-yl)-2,8-diazaspiro[4.5]decan-1-one] | 23 |
| C[C@@H]1CC2(CCN(C[C@@H](O)c3ccc4c(c3)CCc3nnnn3-4)CC2)C(=O)N1C1=CC(=O)OC1 [Example 14, (R)-8-((S)-2-(4,5-dihydrotetrazolo[1,5-a]quinolin-7-yl)-2-hydroxyethyl)-3-methyl-2-(5-oxo-2,5-dihydrofuran-3-yl)-2,8-diazaspiro[4.5]decan-1-one] | 284 |
| C[C@H]1CC2(CCN(C[C@@H](O)c3ccc4c(c3)CCc3nnnn3-4)CC2)C(=O)N1C1=CC(=O)OC1 [Example 15, (S)-8-((S)-2-(4,5-dihydrotetrazolo[1,5-a]quinolin-7-yl)-2-hydroxyethyl)-3-methyl-2-(5-oxo-2,5-dihydrofuran-3-yl)-2,8-diazaspiro[4.5]decan-1-one] | 14 |
| C[C@@H]1CC2(CCN(C[C@H](O)c3ccc4c(ccc5nnnn54)c3)CC2)C(=O)N1C1=CC(=O)OC1 [Example 16, (R)-8-((R)-2-hydroxy-2-(tetrazolo[1,5-a]quinolin-7-yl)ethyl)-3-methyl-2-(5-oxo-2,5-dihydrofuran-3-yl)-2,8-diazaspiro[4.5]decan-1-one] | 32 |
| C[C@H]1CC2(CCN(C[C@H](O)c3ccc4c(ccc5nnnn54)c3)CC2)C(=O)N1C1=CC(=O)OC1 [Example 17, (S)-8-((R)-2-hydroxy-2-(tetrazolo[1,5-a]quinolin-7-yl)ethyl)-3-methyl-2-(5-oxo-2,5-dihydrofuran-3-yl)-2,8-diazaspiro[4.5]decan-1-one] | 20 |
| C[C@@H]1CC2(CCN(C[C@@H](O)c3ccc4c(ccc5nnnn54)c3)CC2)C(=O)N1C1=CC(=O)OC1 [Example 18, (R)-8-((S)-2-hydroxy-2-(tetrazolo[1,5-a]quinolin-7-yl)ethyl)-3-methyl-2-(5-oxo-2,5-dihydrofuran-3-yl)-2,8-diazaspiro[4.5]decan-1-one] | 7 |
